Values quoted from earlier work as cited in US6403120B1 (Wyeth, priority 1996, dated 2002).

Conditions: plural daily dosing regimen

patients experiencing nausea: about forty five | patients with vomiting: about seventeen
SMILES: COc1ccc(C(CN(C)C)C2(O)CCCCC2)cc1.Cl (centres unmarked) [venlafaxine hydrochloride, 1-[2-(dimethylamino)-1-(4methoxyphenyl)ethyl]cyclohexanol hydrochloride]
